{
  "source": "patent US20240390308A1",
  "about": "“APPLICATION METHOD OF POTASSIUM ION CHANNEL BLOCKER IN PREPARATION OF DRUGS FOR TREATING LIVER FIBROSIS” (Affiliated Hospital of Zunyi Medical University, priority 2023, published 2024)",
  "key": {"α-SMA": {"tested_on": "α-SMA", "assay": "α-SMA expression in liver tissue detected by immunohistochemistry", "format": "in vivo", "conditions": "liver fibrosis mice induced by CCl4, treated with sotalol", "method": "Experimental methods are as follows. The paraffin blocks prepared in the embodiment 1 are taken and performed immunohistochemistry according to the procedures after slicing into slices. The slices are soaked in 100%, 95%, 80%, and 75% ethanol for 5 minutes sequentially in that order, then rinsed them with the PBS solution, catalase is removed by using hydrogen peroxide, and antigens are repaired by sodium citrate repair solution. After cooling, the treated slices are rinsed with the PBS solution, sealed at room temperature for 30 minutes, then incubated overnight at 4° C. with primary antibodies, and incubated at room temperature with secondary antibodies for 1 hour on the next day. Then, the incubated slices are stained with diaminobenzidine (DAB), counterstained with hematoxylin, differentiated with hydrochloric acid alcohol, dehydrated, sealed, and finally observed and photographed under the microscope."}, "[1]": {"tested_on": "α-SMA, LC3, p62, ZO-1, N-cadherin, vimentin in HSC-T6 cells", "assay": "Expression of α-SMA, autophagy-related index and EMT markers in HSCs by Western-blot", "format": "cell-based, rat", "conditions": "sotalol 400 μM, TGF-β1 10 ng/mL, 48 hours", "description": "Experimental materials include HSC-T6 cells, a DMEM complete medium, cell culture dishes, a cell lysis solution, a PBS solution, a BCA protein quantitative kit, defatted milk powder, primary antibodies and corresponding secondary antibodies related to α-SMA, autophagy and EMT. Experimental method are as follows. The experiment is grouped into a normal control group, a TGF-β 1 group, a sotalol +TGF-β1 group, and a sotalol group, where the stimulation concentration of the TGF-β1 is 10 ng/mL and concentration of the sotalol is 400 μM. The HSC-T6 cells are cultured by using cell culture dishes, incubated, dosed, and added with TGF-β1according to the conditions described in the embodiment 4. After 48 hours, the incubated cells are rinsed by the precooled PBS solution for 3-4 times, and residual PBS liquid is absorbed with a filter paper, 50 μL radioimmune precipitation assay (RIPA) and 0.5 μL (100:1) phenylmethanesulfonyl fluoride (PMSF) with […] concentration are added in a 50 mL culture flask and placed on ice for 30 minutes. Then, the protein is scraped by a cell scraper from the culture flask and suctioned out into the EP tubes, and centrifuged at 12000 rpm for 30 minutes at 4° C. A standard curve is made, 1 μL protein samples, 19 μL PBS solution and 200 μL (50:1) BCA working solution are added in each well of the 96-well plate, and two replicate wells are added per well. The 96-well plate is put in a 37° C. drying oven for 30 minutes. The OD value at 560 nm is measured by using an enzyme-linked immunosorbent assay on the machine to calculate the concentration of the protein. The protein is boiled in boiling water for 5 minutes before samples loading, and the samples are performed with gel electrophoresis, membrane transfer and blocking sequentially, then the treated samples are exposed after incubating with the primary antibodies and the secondary antibodies."}, "[2]": {"tested_on": "α-SMA, LC3, p62, N-cadherin, vimentin, ZO-1 in liver tissue", "assay": "Expression of α-SMA, autophagy-related index and EMT markers in liver tissue by Western-blot", "format": "in vivo, mice", "conditions": "liver tissue induced by CCl4, after treatment with sotalol", "from_the_text": "Experimental materials include mouse liver tissue, a tweezer, a scissor, 2 millimeters (mm) steel balls, a magnet, a cell lysis solution, a PBS solution, a bicinchoninic acid (BCA) protein quantitative kit, defatted milk powder, and primary antibodies and corresponding secondary antibodies related to α-SMA, autophagy and EMT. Experimental method are as follows. The liver tissue in the embodiment 1 is taken about the size of a grain of rice by using the tweezer and the scissor, added to labeled 1.5 mL Eppendorf (EP) tubes, two 2 mm steel balls and 200-250 microliter (μL) cell lysis solution are added into each of the EP tubes, after the parameters are set, and the EP tubes are placed in the grinder for full grinding. Then, the steel balls are sucked out by using the magnet, and after being applied to the ice for 30 minutes, the EP tubes are centrifuged at 12000 revolutions per minute (rpm) for 30 minutes at 4° C. A standard curve is made, 1 μL protein samples, 19 μL PBS solution and 200 μL (50:1) BCA working solution are added in each well of a 96-well plate, and two replicate wells are added per well. The 96-well plate is put in a 37°° C. drying oven for 30 minutes. The optical density (OD) value at 560 nanometers (nm) is measured by using an enzyme-linked immunosorbent assay (ELISA) on the machine to calculate the concentration of the protein. The protein is boiled in boiling water for 5 minutes before samples loading, and the samples are performed with gel electrophoresis, membrane transfer and blocking sequentially, then the treated samples are exposed after incubating with the primary antibodies and the secondary antibodies."}, "HSC-T6 cells": {"tested_on": "HSC-T6 cells", "assay": "Sotalol and TGF-β1 co-culture, proliferation of hepatic stellate cells detected by CCK-8", "format": "cell-based, rat", "conditions": "sotalol 200, 400, 800, 1000 μM added 3 hours before TGF-β1 10 ng/ml; 48 hours incubation", "description": "Experimental materials include HSC-T6 cells (also referred to as immortalized hepatic rat stellate cell line), a Dulbecco's modified Eagle's medium (DMEM) complete medium, a 96-well plate, a counting chamber (also referred to as hemocytometer), CCK-8 working solution, and the like. Experimental method are as follows. The HSC-T6 cells are cultured in the DMEM culture medium containing 10% fetal bovine serum, 1% double antibodies (penicillin-streptomycin solution) and 1% nonessential amino acid (NEAA) at 37° C. and 5% CO2, and the cells are digested by using trypsin for passage cultivation after the cells are converged to 80% to 90%. Next, the cells are inoculated in the plate, specifically, a density of 7×10^6 cells per liter (cells/L) cell suspension is taken and added at 100 μL cell suspension per well to the 96-well culture plate, each group has 6 replicate wells. […] After incubation for 48 hours, 100 μL of “10% CCK-8 and 90% medium” mixed solution is added to each well and incubated for 1 hour to 4 hours at 37° C., the wavelength is set at 450 nm, and absorbance value is read and recorded at the corresponding wavelength by using a fully-automated enzyme labeling instrument. Effects of sotalol on cell proliferation are detected by CCK-8, and an optimal time of action and an optimal drug concentration are screened."}, "[3]": {"tested_on": "CCl4-induced liver fibrosis in mice", "assay": "CCl4-induced liver fibrosis in mice, HE staining and Sirius-red staining of liver tissue", "format": "in vivo", "description": "Experimental materials include 60 healthy male C57 mice (20-25g/mouse), gavage needles, 1 milliliter (mL) syringes, CCl4 solution, olive oil and sotalol solution. Experimental method is as follows. The CCl4 solution is dissolved in the olive oil solution (CCl4: olive oil=1:[…]), prepared and used immediately, concentration is 0.1milliliters per 20 grams (0.1 mL/20 g), intragastrically administered twice a week for a total of 8 weeks to the mice. The sotalol solution is mixed with physiological saline, prepared and used immediately, concentration is 1 millimole per liter (mM), 0.2 mL/20 g, and intraperitoneally injected once a day for a total of 6-8 weeks to the mice. The mice are randomly divided into four groups: a. a normal control group; b. a model group, mice are intragastrically administered the CCl4 for 8 weeks; c. a CCl4 and sotalol group, mice are treated with the CCl4 alone for 2 weeks, followed by concurrent administration of the sotalol and CCl4 for 6 weeks; d. a sotalol group, mice are intraperitoneally injected the sotalol for 8 weeks. The mice are sacrificed in sequence at the 2nd, 4th, 6th, and 8th weeks of modeling, one for each group, liver samples of the mice are taken out and placed in a -80 Celsius degree (° C.) refrigerator for quick-frozen storage, and other livers are fixed in 4% paraformaldehyde for 24 hours and then embedded in paraffins. […] Then, all mice are sacrificed, and eyeball blood of mice is taken to measure liver function indexes (alanine transaminase abbreviated as ALT, aspartate transaminase abbreviated as AST). In addition, the liver tissue is fixed with formaldehyde and embedded in paraffins for later use."}, "[4]": {"conditions": "CCl4 and sotalol group: CCl4 alone 2 weeks, then sotalol (1 mM, 0.2 mL/20 g, i.p. once a day) plus CCl4 for 6 weeks, vs model group"}},
  "data": [
    {"smiles": "CC(C)NCC(O)c1ccc(NS(C)(=O)=O)cc1", "note": "(centres unmarked) [sotalol]", "values": [
      {"measurement": "expression of α-SMA in liver tissue (immunohistochemistry)", "setting": "α-SMA", "value": "down-regulate"},
      {"measurement": "accumulation of P62 in HSCs (Western-blot)", "setting": "[1]", "value": "promoted"},
      {"measurement": "accumulation of ZO-1 in HSCs (Western-blot)", "setting": "[1]", "value": "promoted"},
      {"measurement": "expression of LC3 in HSCs (Western-blot)", "setting": "[1]", "value": "significantly inhibited"},
      {"measurement": "expression of N-cadherin in HSCs (Western-blot)", "setting": "[1]", "value": "inhibited"},
      {"measurement": "expression of vimentin in HSCs (Western-blot)", "setting": "[1]", "value": "inhibited"},
      {"measurement": "expression of α-SMA in HSCs (Western-blot)", "setting": "[1]", "value": "significantly reduced"},
      {"measurement": "accumulation of ZO-1 in liver tissue (Western-blot)", "setting": "[2]", "value": "promoted"},
      {"measurement": "accumulation of p62 in liver tissue (Western-blot)", "setting": "[2]", "value": "promoted"},
      {"measurement": "expression of LC3 in liver tissue (Western-blot)", "setting": "[2]", "value": "significantly reduced"},
      {"measurement": "expression of N-cadherin in liver tissue (Western-blot)", "setting": "[2]", "value": "inhibited"},
      {"measurement": "expression of vimentin in liver tissue (Western-blot)", "setting": "[2]", "value": "inhibited"},
      {"measurement": "expression of α-SMA in liver tissue (Western-blot)", "setting": "[2]", "value": "significantly reduced"},
      {"measurement": "TGF-β1-induced proliferation trend of HSC-T6 cells (CCK-8)", "setting": "HSC-T6 cells", "value": "inhibited"},
      {"measurement": "degree of damage of the liver tissue (HE staining)", "setting": "[3]; [4]", "value": "significantly reduced"},
      {"measurement": "degree of fibrous tissue proliferation (HE staining)", "setting": "[3]; [4]", "value": "significantly reduced"},
      {"measurement": "collagen fibers (Sirius-red staining), induction of liver fibrosis by sotalol alone", "setting": "[3]; sotalol group: sotalol 1 mM, 0.2 mL/20 g, i.p. once a day for 8 weeks, no CCl4", "value": "no obvious collagen fibers are observed"}
    ]}
  ]
}
